Each structure is given as a SMILES string. Activity calls are given as the source filed them. No stated cut-off is given here; in the data, actives have a measured IC50 and inactives only a lower limit.

The IC50 is the concentration at which inhibition is half-maximal.

Envelope glycoprotein gp160, sequence (Q6QLK5 whole entry, the tested form may be a part): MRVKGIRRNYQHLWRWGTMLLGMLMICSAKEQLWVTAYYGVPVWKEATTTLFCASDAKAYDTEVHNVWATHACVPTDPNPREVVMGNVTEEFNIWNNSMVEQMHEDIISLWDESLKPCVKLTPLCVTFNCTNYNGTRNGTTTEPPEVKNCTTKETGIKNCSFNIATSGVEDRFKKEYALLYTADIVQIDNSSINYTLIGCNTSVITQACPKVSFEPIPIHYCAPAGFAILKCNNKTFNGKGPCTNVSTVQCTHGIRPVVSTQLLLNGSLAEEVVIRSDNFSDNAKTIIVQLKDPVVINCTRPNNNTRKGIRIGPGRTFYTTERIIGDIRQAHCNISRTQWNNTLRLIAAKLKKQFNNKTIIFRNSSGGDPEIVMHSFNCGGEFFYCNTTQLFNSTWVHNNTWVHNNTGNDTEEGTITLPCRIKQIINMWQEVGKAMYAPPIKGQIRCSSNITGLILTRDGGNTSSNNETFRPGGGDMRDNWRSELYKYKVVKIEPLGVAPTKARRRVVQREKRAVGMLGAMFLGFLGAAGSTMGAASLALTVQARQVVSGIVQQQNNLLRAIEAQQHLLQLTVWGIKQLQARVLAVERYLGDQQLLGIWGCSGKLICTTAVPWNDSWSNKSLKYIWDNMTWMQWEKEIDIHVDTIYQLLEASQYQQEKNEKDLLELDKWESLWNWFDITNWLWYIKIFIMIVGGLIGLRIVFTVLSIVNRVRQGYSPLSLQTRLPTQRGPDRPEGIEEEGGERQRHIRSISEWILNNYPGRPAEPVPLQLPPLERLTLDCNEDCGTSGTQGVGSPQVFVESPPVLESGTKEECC

The assay concerns the target Envelope glycoprotein gp160 (Human immunodeficiency virus 1, UniProt Q6QLK5). The assay can be described thus: cell-free HIV fusion peptide-binding blockers – biochemical, uHTS, fluorescence dequenching, […] (AID 1986).
`O=C(CCN1C(=O)/C(=C\c2ccccc2F)SC1=S)Nc1ccc(C(=O)O)c(O)c1`: the IC50 is 15.1 µM (active).
On to `COc1cc(/C=C2/C(=O)NN(c3ccc(C)c(Cl)c3)C2=O)cc([N+](=O)[O-])c1O`, for which the IC50 was 30.2 µM (active).
The result for `COc1ccc(O)c(C(=O)c2cc(SCC(=O)O)c3nc4sc5c(c4c(=O)n3c2)CCCC5)c1` reads 14.2 µM (active).
The result for `O=[N+]([O-])c1cc(Cl)cc(/C=N/NC(=S)Nc2ccc(S(=O)(=O)N3CCOCC3)cc2)c1O` reads 28.2 µM (active).
